Consider one molecule from ChEMBL document CHEMBL4177534, “Discovery and evaluation of 1H-pyrrolo[2,3-b]pyridine based selective and reversible small molecule BTK inhibitors for the treatment of rheumatoid arthritis” (Bioorg Med Chem Lett, 2017).

Structures are written as SMILES.

Type in all cases: functional
Holding throughout (design): scale not given: the % may be the effect or the level left

The subject of assay [1] is Mus musculus. The assay can be described thus: Ex-vivo inhibition of BTK in C57BL/6J mouse assessed as anti-mouse IgD antibody stimulated BCR mediated CD69 level in whole blood isolated from 10 mg/kg, po bid treated mouse measured after 2 hrs post first dose by flow cytometry relative to control. (In general: In flow cytometry, cells or beads pass a laser one at a time.)

The subject of assay [2] is Mus musculus. The assay can be described thus: Ex-vivo inhibition of BTK in C57BL/6J mouse assessed as anti-mouse IgD antibody stimulated BCR mediated CD69 level in whole blood isolated from 100 mg/kg, po bid treated mouse measured after 6 hrs post first dose by flow cytometry relative to control.
Assay [3] has as its system Mus musculus. The assay can be described thus: Ex-vivo inhibition of BTK in C57BL/6J mouse assessed as anti-mouse IgD antibody stimulated BCR mediated CD69 level in whole blood isolated from 10 mg/kg, po bid treated mouse measured after 24 hrs post first dose by flow cytometry relative to control.
The test system of assay [4] is Mus musculus. In words: Ex-vivo inhibition of BTK in C57BL/6J mouse assessed as anti-mouse IgD antibody stimulated BCR mediated CD69 level in whole blood isolated from 30 mg/kg, po bid treated mouse measured after 2 hrs post first dose by flow cytometry relative to control.

`CCN1CCN(Cc2ccc(-c3cc4c(-c5cccc(N6CCOc7cc(C8CC8)cc(F)c7C6=O)c5CO)ccnc4[nH]3)nc2)CC1`: the Activity with Mus musculus [1] came out at 48%; with Mus musculus [2], 83%; with Mus musculus [3] it was 40%; in the assay with Mus musculus [4] it was 45%.
